Entries after “also recorded” stand apart in the source; their conditions may differ.
Experiments:
[1] = test system: glioma cell lines A172, U87MG and T98G; test: BCNU crystal violet viability test in glioma cell lines; format: cell-based; conditions: BCNU 5-80 μg/ml, 2 hrs; viability 48 hrs later; p<0.001
Method: (§1) Various glioma cell lines (A172, U87MG, and T98G) or HEK293 were transiently transfected with different plasmids as indicated above. For the BG-treated groups, BG (Benzyl Guanine, an MGMT inhibitor) was added to the cell medium 4-6 hrs after transfection at a final concentration of 80 μM and incubated with the cells for the duration of the experiment. At 24 hrs following transfection, the cells were exposed for 2 hrs to increasing concentrations of BCNU (as indicated), which is a β-chloro-nitrosourea compound used as an alkylating agent in chemotherapy. The cells were fixed 48 hrs later with 4% paraformaldehyde for 20 min at room temperature, and washed twice with PBS. A 400 μl volume of 0.5% crystal violet in dH2O was added and the cells were stained for 15 min on a vibrator at 300 rpm. The dye was aspirated, the wells rinsed with dH2O, and the plate was allowed to dry in the hood. For destaining, 400 μl of 10% acetic acid were added to each well and the cells were incubated for 15 min on a vibrator at 300 rpm. The optical density (OD590) of the de-stained solution in each well was read and recorded.
(§2) To determine whether this also results in induction of cellular resistance to alkylating agents, the sensitivity of the three glioma cell lines to increasing quantities of BCNU (5-80 μg/ml), was next compared. […]

HEK293 cells = test: BG and BCNU treatment, crystal violet viability test in transfected HEK293; format: cell-based, human; conditions: BG 80 μM added 4-6 hrs after transfection; control and p65 transfected HEK293; BCNU 20-80 μg/ml 2 hrs
Method: as §1, §2

SMILES	resistance of T98G to BCNU compared with A172 and U87MG (in words) [1]	effect of BG on sensitivity to BCNU (in words) (HEK293 cells)
O=NN(CCCl)C(=O)NCCCl [BCNU, 1,3-bis(2-chloroethyl)-1-nitrosourea]	more resistant	
Nc1nc(OCc2ccccc2)c2nc[nH]c2n1 [BG, O6-Benzylguanine]		augmented the cell sensitivity to BCNU; also recorded: completely abrogated the p65-induced chemoresistance
